Laboratory results from patent publication US11286274B2, “Nicotinamide riboside derivatives and their uses” (MitoPower LLC, priority 2017, dated 2022).
Where a name gives a salt, the structure may show the parent alone.

Legend:
Jurkat cells = test: Total cellular NAD+ level after MNNG-induced depletion (NAD/NADH Glo Assay), Jurkat cells; assay type: cell-based; settings: for % NAD+ Repletion: Jurkat, MNNG 100 μM, compound 1 mM; for increase of NAD+ level: Jurkat cells, 100 μM MNNG 30 min
HEPG2 cells = test: Total cellular NAD+ level after MNNG-induced depletion (NAD/NADH Glo Assay), HEPG2 cells; assay type: cell-based; settings: HEPG2, MNNG 100 μM, compound 1 mM

Compound	% NAD+ Repletion (Jurkat cells) [%]	% NAD+ Repletion (HEPG2 cells) [%]	increase of NAD+ level (Jurkat cells; then NR 100 μM without olaparib for 3.5 hr) [%]	increase of NAD+ level (Jurkat cells; then olaparib 5 nM without NR for 3.5 hr) [%]
NC(=O)c1ccc[n+]([C@@H]2O[C@H](COC(=O)CCC(=O)O)[C@@H](O)[C@H]2O)c1 [MP-42, 3-Carboxamide-1-((2R,3R,4S,5R)-5-(((3-carboxypropanoyl)oxy)methyl)-3,4-dihydroxytetrahydrofuran-2-yl)pyridin-1-ium trifluoroacetate]	8.2	23.7	–	–
COC(=O)CCC(=O)OC[C@H]1O[C@@H]([n+]2cccc(C(N)=O)c2)[C@H](O)[C@@H]1O [MP-43, 3-Carboxamide-1-((2R,3R,4S,5R)-3,4-dihydroxy-5-(((4-methoxy-4-oxobutanoyl)oxy)methyl)tetrahydrofuran-2-yl)pyridin-1-ium trifluoroacetate]	12.9	31.1	–	–
NC(=O)c1ccc[n+]([C@@H]2O[C@H](CO)[C@@H](O)[C@H]2O)c1 [NR, nicotinamide riboside]	–	–	43	–
O=C(c1cc(Cc2n[nH]c(=O)c3ccccc23)ccc1F)N1CCN(C(=O)C2CC2)CC1 [olaparib, reference compound]	–	–	–	8
